Entries after “also recorded” stand apart in the source; their conditions may differ.
Assays:
[1] = In vitro protein binding in mouse serum (ultrafiltration); type: in vitro ADME; settings: 37 °C, 30 min, indium-111 labeled material
Experimental: Protein binding of the NACAs was determined as reported elsewhere. The NACAs were labeled with indium-111 (50 MBq/nmol), added to mouse serum (1 MBq/500 µL), and incubated at 37 °C for 30 min. Four portions of 10 µL were taken and counted on a γ-counter. The remaining serum was transferred to a centifree ultrafiltration device (4104 centrifugal filter units; Millipore, 30 kDa nominal molecular weight limit, methylcellulose micro partition membranes equilibrated once with 5% v/v Tween-80 in phosphate-buffered saline (PBS) and then trice with PBS) and centrifuged at 7.0 × 1000 g for 40 min at room temperature. Four portions of 10 µL from the filtrates were counted for radioactivity in a γ-counter. The amount of plasma-bound radioligand was calculated as the fraction between the radioactivity measured in the filtrate portions relative to the corresponding loading solution (set to 100%).

[2] = n-octanol/PBS distribution coefficient (LogD7.4); type: physicochemical; settings: LogD7.4, indium-111 labeled material, triplicates
Experimental: The [^111In]1, [^111In]2, and [^111In]3 were labeled at a molar activity of 10 MBq/nmol and 100 kBq was added to n-octanol (500 µL) and PBS (500 µL). After vigorous vortexing, the vial was centrifuged at 16.1 × 1000 g for 3 min. The octanol phase was carefully pipetted into a new vial and both layers were centrifuged again. From both the organic and the aqueous layers, samples (10 µL) were taken out and counted for activity on a γ-counter. LogD values were calculated as follows: Log ([NACA]n-octanol/[NACA]PBS). These experiments were performed as triplicates.

[3] = tested on: 4T1-Luc2 cells; test: In vitro dead/alive cell binding assay (fluorescence and γ-counting); type: cell-based, mouse; settings: 100 nM, EtOH-killed or alive 4T1-Luc2 cells; for dead/alive cell binding, fluorescence signal: non-radioactive precursors, 30 min, 37 °C, 800 nm; for dead/alive cell binding, radioactivity: indium-111 labeled, 2.5 MBq/nmol, γ-counting
Experimental: The 4T1-Luc2 cells were cultured in RPMI-1640 medium containing 10% fetal bovine, penicillin (100 U/mL), and streptomycin ([…]) 37 °C under a humidified atmosphere with 5% CO2. The cells were seeded in 24 well plates (1 × 10^5 cells per well). The next day, the cells were killed with EtOH (70%, 50 μL) or kept alive and incubated for 30 min at 37 °C with 100 nM of the NACAs in culturing medium. The plate was then imaged on an Odyssey (Li-Cor, 800 nm laser intensity 5.0).
Similarly, these killed and alive cells were incubated with the indium-111 labeled NACAs (100 nM, 2.5 MBq/nmol) in culturing medium. The cells were washed with PBS and collected with NaOH (1.0 M) for γ-counting. These experiments were performed as triplicates.

[4] = tested on: 4T1-Luc2 cells; test: Fluorescence microscopy of dead and alive cells; type: cell-based, mouse; settings: unlabeled, 100 nM, 30 min, 37 °C
Experimental: The 4T1-Luc2 cells were seeded on 10 mm diameter coverslips in 24 well plates (10^5 cells per well). The cells were kept alive or killed with 50 µL EtOH (70%) and incubated in culturing medium with or without unlabeled 3 (100 nM) for 30 min at 37 °C. The cells were gently washed with PBS three times and incubated with Calcein-AM (CAM, 2 µM) and propidium iodide (PI, 4 µM) in PBS for 30 min at 37 °C [24]. Then, the cells were fixated with PFA (4% in PBS, 10 min, RT) and nuclei were stained with DAPI (Sigma-Aldrich, 1:1000 in PBS, 5 min). After final washing with PBS, the coverslips were removed from the well plate and mounted on a microscope slide for fluorescence microscope imaging at 20× magnification.

[5] = tested on: MCF7-Luc2 tumors; test: Tumor uptake in doxorubicin- or saline-treated MCF7-Luc2 tumor-bearing mice; type: in vivo, mouse; settings: 1 h p.i., ±SEM
Experimental: (§1) The quadruple modality imaging procedure is illustrated in Figure S21. The tumor-bearing mice were injected with [^111In]3 (20 MBq, 2 nmol) in 200 µL PBS into the tail vein. The following day, the mice fasted for four hours before they were injected with [^18F]FDG (10 MBq, 200 µL) in PBS. At 24 h p.i. of [^111In]3 and 1 h p.i. of [^18F]FDG, FLI imaging was performed with a 730 nm excitation and 760 nm emission filter for 400 ms with 4 × 4 binning. Then, the mice received an intraperitoneal injection of D-luciferin (150 mg/kg) maintaining the position of the mice in the bed unaltered. During the onset of the bioluminescence signal, PET/SPECT imaging was performed of the tumors with a 2 cm axial field of view over a total scan time of 30 min, followed by a 2 min full-body CT. Finally, BLI imaging was performed with an open filter for 400 ms with 4 × 4 binning. Imaging was performed under isoflurane anesthesia whilst maintaining the body temperature constant.
Six mice were inoculated bilaterally with MCF7-Luc2 cells (3.0 × 10^6), suspended in 30 µL PBS:Matrigel (1:1; v/v). On days 14, 16, and 18 after inoculation, the tumor-bearing mice received either doxorubicin (5 mg/kg, Janssen Pharmaceuticals, Beerse, Belgium) or a saline solution via i.v. injection. On days 21 and 22 after inoculation, the mice underwent the FLI, BLI, and PET/SPECT/CT imaging procedure (vide supra).
(§2) After the final imaging experiments, the mice were sacrificed by cervical dislocation, tumors and organs were collected, weighted, and activity was accurately quantified by γ-counting to determine radioactivity uptake in the percentage of injected dose per gram (%ID/g). After γ-counting, the tumors were frozen in liquid nitrogen and stored at −80 °C overnight. Adjacent cryosections (10 µm) were prepared of the tumor centers for autoradiography. The sections were stored at −20 °C for the radioactivity to decay, before 800 nm fluorescence imaging and histochemical dead cell staining.

[6] = tested on: EMT6-Luc2 tumors; test: Tumor uptake in EMT6-Luc2 tumor-bearing mice; type: in vivo, mouse; settings: untreated, 1 h p.i., ±SEM
Experimental: as §1, with “constant. […]” for “constant.”
as §2, with “After γ-counting, the tumors were frozen in liquid nitrogen and stored at −80 °C overnight. Adjacent cryosections (10 µm) were prepared of the tumor centers for autoradiography.” left out

[7] = tested on: 4T1-Luc2 tumors; set-up: method as in PMID 32514888; settings: comparison value; cited from earlier work
[8] = In vivo stability (radio-HPLC of urine 1 h after injection); set-up: species or system mouse; settings: mice, i.v., 1 h p.i.
Text: After an hour, the mice were sacrificed by cervical dislocation and blood and urine were collected, which were frozen in liquid nitrogen directly after extraction. […] The supernatant was collected and analyzed by radio-HPLC (Method-D).

SMILES	Protein Binding [1] [%]	LogD [2]	dead/alive cell binding, fluorescence signal [3]	other results
CC1(C)C(=CC=C2CCCC(C=CC3=[N+](CCCCCC(=O)NCCOCCOCCOCCOCCNC(=O)CN4CCN(CC(=O)O)CCN(CC(=O)O)CCN(CC(=O)O)CC4)c4ccc(S(=O)(=O)O)cc4C3(C)C)=C2Oc2ccc(S(=O)(=O)O)cc2)N(CCCCS(=O)(=O)O)c2ccc(S(=O)(=O)O)cc21 [Compound 1]	70 ± 0.9	−3.58 ± 0.07	specifically bound to dead cells and not to live cells	–
CC1(C)C(=CC=C2CCCC(C=CC3=[N+](CCCCCC(=O)NCCCCC(NC(=O)C(CCCCNC(=O)CCCc4ccc(I)cc4)NC(=O)CN4CCN(CC(=O)O)CCN(CC(=O)O)CCN(CC(=O)O)CC4)C(N)=O)c4ccc(S(=O)(=O)O)cc4C3(C)C)=C2Oc2ccc(S(=O)(=O)O)cc2)N(CCCCS(=O)(=O)O)c2ccc(S(=O)(=O)O)cc21 (stereo not drawn) [Compound 2]	95 ± 0.1	−2.47 ± 0.01	considerably stronger binding to the dead cells than compound 1	–
CC1(C)C(/C=C/C2=C(Oc3ccc(S(=O)(=O)O)cc3)C(=C/C=C3\N(CCCCS(=O)(=O)O)c4ccc(S(=O)(=O)O)cc4C3(C)C)/CCC2)=[N+](CCCCCC(=O)NCCCC[C@@H](NC(=O)CCCc2ccc(I)cc2)C(=O)NCc2ccc(CNC(=O)CN3CCN(CC(=O)O)CCN(CC(=O)O)CCN(CC(=O)O)CC3)cc2)c2ccc(S(=O)(=O)O)cc21 [Compound 3]	94 ± 0.2	−2.73 ± 0.14	considerably stronger binding to the dead cells than compound 1	NIR-fluorescence binding to dead and alive cells (microscopy) [4]: distinct NIR-fluorescent signal was observed from dead cells; also recorded: binds to dead cells and not to alive cells
OC[C@H]1OC(O)[C@H]([18F])[C@@H](O)[C@@H]1O (stereo partly drawn) [[^18F]FDG, reference compound]	–	–	–	tumor uptake of [18F]FDG ([5]; after doxorubicin treatment (5 mg/kg i.v., 3 injections)): 1.79 ± 0.11 %ID/g; tumor uptake of [18F]FDG ([5]; after saline treatment (control)): 3.02 ± 0.51 %ID/g; tumor uptake of [18F]FDG [6]: 4.13 ± 0.58 %ID/g
CC1(C)C(=CC=C2CCCC(C=CC3=[N+](CCCCCC(=O)NCCOCCOCCOCCOCCNC(=O)CN4CCN(CC(=O)[O-])CCN(CC(=O)[O-])CCN(CC(=O)[O-])CC4)c4ccc(S(=O)(=O)O)cc4C3(C)C)=C2Oc2ccc(S(=O)(=O)O)cc2)N(CCCCS(=O)(=O)O)c2ccc(S(=O)(=O)O)cc21.[111In+3] [[^111In]1, [^111In]In-DOTA-PEG4-IRDye800CW]	70	–	–	radioactive tumor uptake in the SPECT images [7]: 0.26 ± 0.05 %ID/mL
CC1(C)C(=CC=C2CCCC(C=CC3=[N+](CCCCCC(=O)NCCCC[C@H](NC(=O)[C@H](CCCCNC(=O)CCCc4ccc(I)cc4)NC(=O)CN4CCN(CC(=O)[O-])CCN(CC(=O)[O-])CCN(CC(=O)[O-])CC4)C(N)=O)c4ccc(S(=O)(=O)O)cc4C3(C)C)=C2Oc2ccc(S(=O)(=O)O)cc2)N(CCCCS(=O)(=O)O)c2ccc(S(=O)(=O)O)cc21.[111In+3] [[^111In]2]	–	–	–	in vivo stability [8]: decomposed after an hour; dead/alive cell binding, radioactivity [3]: increased as compared to [^111In]1
NCCCC[C@H](NC(=O)CCCc1ccc(I)cc1)C(=O)NCc1ccc(CNC(=O)CN2CCN(CC(=O)[O-])CCN(CC(=O)[O-])CCN(CC(=O)[O-])CC2)cc1.[111In+3] [[^111In]8]	–	–	–	dead/alive cell binding, radioactivity [3]: did not show considerable dead cell binding

Source: paper PMC8870237, “Improved Multimodal Tumor Necrosis Imaging with IRDye800CW-DOTA Conjugated to an Albumin-Binding Domain” (Cancers, 2022)
